Laboratory results taken from US20210161855A1, “5-LIPOXYGENASE ANTAGONISTS” (INSTITUTO DE MEDICINA MOLECULAR JOÃO LOBO ANTUNES, priority 2017, published 2021).

How the values were obtained:
[1] = target: T1, 12-LO (Homo sapiens, UniProt P18054); test: 12-LO inhibition in intact human neutrophils; format: cell-based; conditions: without DTT
T1 construct: endogenous in cells; host or cells: human blood neutrophil preparation
T1 sequence (P18054 1-663): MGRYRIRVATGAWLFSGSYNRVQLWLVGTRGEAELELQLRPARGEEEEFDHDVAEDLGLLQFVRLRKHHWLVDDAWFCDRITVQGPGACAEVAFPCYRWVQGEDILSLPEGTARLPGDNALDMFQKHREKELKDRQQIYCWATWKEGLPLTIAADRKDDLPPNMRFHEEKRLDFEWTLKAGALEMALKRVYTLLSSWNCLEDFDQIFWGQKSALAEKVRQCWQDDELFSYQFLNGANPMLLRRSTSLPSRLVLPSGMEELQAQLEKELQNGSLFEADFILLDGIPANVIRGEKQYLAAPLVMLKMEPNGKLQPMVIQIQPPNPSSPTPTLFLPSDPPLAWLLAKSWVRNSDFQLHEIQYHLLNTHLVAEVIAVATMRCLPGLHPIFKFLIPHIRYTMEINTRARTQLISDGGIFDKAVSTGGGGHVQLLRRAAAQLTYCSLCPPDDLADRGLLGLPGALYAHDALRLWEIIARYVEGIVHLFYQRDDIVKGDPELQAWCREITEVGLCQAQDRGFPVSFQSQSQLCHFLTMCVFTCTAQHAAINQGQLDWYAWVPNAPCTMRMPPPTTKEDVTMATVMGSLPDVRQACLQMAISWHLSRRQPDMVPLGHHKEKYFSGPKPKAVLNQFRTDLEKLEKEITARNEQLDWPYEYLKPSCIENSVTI
Experimental: (§1) Peripheral blood (University Hospital Jena, Germany) was withdrawn from healthy adult volunteers with consent that had not taken any anti-inflammatory drugs during the last 10 days, by venipuncture in heparinized tubes (16 IE heparin/mL blood). The blood was centrifuged at 4000 g for 20 min at 20° C. for preparation of leukocyte concentrates. Leukocyte concentrates were then subjected to dextran sedimentation and centrifugation on lymphocyte separation medium (LSM 1077, PAA, Colbe, Germany). Contaminating erythrocytes of pelleted neutrophils were removed by hypotonic Iysis. […] Method B. […] Cysteinyl-LTs C4, D4 and E4 were not detected (amounts were below detection limit), and oxidation products of LTB4 were not determined.

[2] = test system: 15-LO; test: 15-LO inhibition in intact human neutrophils; format: cell-based; conditions: without DTT
Experimental: as §1

[3] = target: T2, 5-lipoxygenase (5-LO) (Homo sapiens, UniProt P09917); test: 5-LO inhibition assay, Method A (Cerep), cell-free functional; format: biochemical
T2 sequence (P09917 1-674): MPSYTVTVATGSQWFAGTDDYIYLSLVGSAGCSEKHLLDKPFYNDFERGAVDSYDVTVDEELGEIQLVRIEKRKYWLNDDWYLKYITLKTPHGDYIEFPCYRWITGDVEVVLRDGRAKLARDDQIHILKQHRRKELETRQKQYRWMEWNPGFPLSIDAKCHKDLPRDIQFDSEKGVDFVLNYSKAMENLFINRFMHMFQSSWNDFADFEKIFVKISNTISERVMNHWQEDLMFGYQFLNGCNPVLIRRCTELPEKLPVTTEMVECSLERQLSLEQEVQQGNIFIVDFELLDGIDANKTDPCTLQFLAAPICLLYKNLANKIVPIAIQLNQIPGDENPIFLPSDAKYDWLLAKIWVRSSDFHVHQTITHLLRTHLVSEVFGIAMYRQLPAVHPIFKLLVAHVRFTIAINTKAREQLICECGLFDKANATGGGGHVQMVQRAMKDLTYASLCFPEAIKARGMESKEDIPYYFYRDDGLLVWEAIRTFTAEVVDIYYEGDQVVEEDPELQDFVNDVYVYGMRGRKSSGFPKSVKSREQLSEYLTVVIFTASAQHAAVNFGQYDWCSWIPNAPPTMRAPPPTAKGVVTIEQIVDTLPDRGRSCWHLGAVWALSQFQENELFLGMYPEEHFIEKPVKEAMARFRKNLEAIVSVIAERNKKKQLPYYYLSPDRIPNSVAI
Experimental: Method A: 5-Lipoxygenase (5-LO), 12-lipoxygenase (12-LO) and 15-lipoxygenase-2 (15-LO-2) inhibition assays were performed at Cerep, SA (Celle l'Evescault, France) on a fee-for-service basis (Ref 0772^36, 0883^37 and 0893^38, respectively), as described in Table 1.

[4] = target: EP2 (Homo sapiens, UniProt P43116); test: Prostanoid EP2 receptor antagonism, functional assay; format: cell-based; conditions: 150 μM
Chain of EP2 (P43116 whole entry): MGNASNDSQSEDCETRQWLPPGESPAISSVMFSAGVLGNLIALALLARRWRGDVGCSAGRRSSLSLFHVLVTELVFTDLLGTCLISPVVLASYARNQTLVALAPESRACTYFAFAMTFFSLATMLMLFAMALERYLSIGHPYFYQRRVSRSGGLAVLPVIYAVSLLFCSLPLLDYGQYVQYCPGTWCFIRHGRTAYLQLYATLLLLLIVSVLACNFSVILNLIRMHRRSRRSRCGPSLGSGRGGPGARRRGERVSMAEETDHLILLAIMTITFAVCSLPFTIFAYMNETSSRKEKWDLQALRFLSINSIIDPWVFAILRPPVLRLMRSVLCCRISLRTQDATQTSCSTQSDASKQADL

[5] = target: T3, EP3 (Homo sapiens, UniProt P43115); test: Prostanoid EP3 receptor antagonism, functional assay; format: cell-based; conditions: 150 μM
T3 sequence (P43115 1-390): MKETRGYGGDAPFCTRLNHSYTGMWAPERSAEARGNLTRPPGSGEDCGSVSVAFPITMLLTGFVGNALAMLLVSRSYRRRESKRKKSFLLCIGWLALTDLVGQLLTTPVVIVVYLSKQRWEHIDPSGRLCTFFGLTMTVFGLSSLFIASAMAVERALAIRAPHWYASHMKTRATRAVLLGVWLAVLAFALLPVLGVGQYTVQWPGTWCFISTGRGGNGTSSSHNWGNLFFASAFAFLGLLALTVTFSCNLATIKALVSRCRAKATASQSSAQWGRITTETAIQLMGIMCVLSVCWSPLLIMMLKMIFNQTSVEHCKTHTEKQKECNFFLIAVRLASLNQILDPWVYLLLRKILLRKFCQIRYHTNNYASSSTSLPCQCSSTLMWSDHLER

[6] = target: T4, purified human 5-LO (Homo sapiens, UniProt P09917); test: Intrinsic tryptophan fluorescence; format: binding; conditions: 1 mM dithiothreitol, increasing concentrations
T4 construct: purchased Abcam ab114310
T4 sequence (P09917 1-674): T2 sequence (P09917 1-674)
Experimental: 5-Lipoxygenase (Cat No. ab114310, Abcam) was concentrated to 0.5 μM in buffer (50 mM Tris-HCl, pH 8.0, 5 mM CaCl2). […] The final DMSO concentration was kept under 0.1%. Fluorescent measurements were performed using a 1 cm pathlength quartz cuvette. Spectra were collected in an Edinburgh Instruments FLS920 Series Fluorescence Spectrophotometer at 25° C. with fluorescence excitation and scanning emission set to 295 nm and 310 to 450 nm, respectively. All assays were carried out in triplicate.

[7] = Dynamic light scattering, colloidal aggregation; format: physicochemical; conditions: relevant concentrations
Experimental: Dynamic light scattering (Zetasizer Nano S, Malvern, UK) was used to determine compound colloidal aggregation potential and kinetic solubility. The particle sizes were measured at 25° C. […] Colloidal aggregation was measured through sequential dilutions. Solubility was assessed at 25 μM after 0 and 30 minutes.

Compound: CC1(C)CCC2=C(O1)c1ccccc1C(=O)C2=O [Compound 1, 3,4-dihydro-2,2-dimethyl-2H-naphtho[1,2-b]pyran-5,6-dione]
- IC50 [1]: > 30 µM
- IC50 [2]: > 30 µM
- Ligand efficiency (LE), 5-LO ([3]; from IC50 2.1 μM): 0.44
- inhibition at 150 µM ([3]; read-out: 5-LO inhibition at the assayed concentration): 96%
- IC50 ([3]; reducing conditions): 2.1 µM
- EP2 antagonist effect [4]: 60%
- EP3 antagonist effect [5]: 95%
- Tryptophan fluorescence shift [6]: blue shift
- Colloidal aggregation [7]: no colloidal aggregation
